Measured values taken from ChEMBL document CHEMBL4017547, “Influences of Histidine-1 and Azaphenylalanine-4 on the Affinity, Anti-inflammatory, and Antiangiogenic Activities of Azapeptide Cluster of Differentiation 36 Receptor Modulators” (J Med Chem, 2017).
Calls of active or inactive are those of the source. The calls are words filed in the database; no cut-off is given here. Starred links: 1 amine or outer side, 2 acyl side, 3 side chain; linkers in the order of their positions; H or OH if unused. Non-standard residues stand in square brackets, D forms with d. Residues, ends and D or L forms follow the SMILES beside them. dTrp(2-Me) = Cc1[nH]c2ccccc2c1C[C@@H](N)C(=O)O; azaTyr = O=C(N(Cc1ccc(O)cc1)N[*:1])[*:2]; azaPhe = O=C(N(Cc1ccccc1)N[*:1])[*:2]

Assays:
[1] = biological target: Platelet glycoprotein 4 (Mus musculus) (UniProt Q08857); test: Modulation of CD36 in mouse J774A.1 cells assessed as inhibition of R-FSL1-induced NO over production at 1 uM preincubated for 1 hr followed by overnight R-FSL1 stimulation by DAN-fluorescence assay relative to control; assay type: cell-based
Platelet glycoprotein 4 (Mus musculus), sequence (Q08857 whole entry): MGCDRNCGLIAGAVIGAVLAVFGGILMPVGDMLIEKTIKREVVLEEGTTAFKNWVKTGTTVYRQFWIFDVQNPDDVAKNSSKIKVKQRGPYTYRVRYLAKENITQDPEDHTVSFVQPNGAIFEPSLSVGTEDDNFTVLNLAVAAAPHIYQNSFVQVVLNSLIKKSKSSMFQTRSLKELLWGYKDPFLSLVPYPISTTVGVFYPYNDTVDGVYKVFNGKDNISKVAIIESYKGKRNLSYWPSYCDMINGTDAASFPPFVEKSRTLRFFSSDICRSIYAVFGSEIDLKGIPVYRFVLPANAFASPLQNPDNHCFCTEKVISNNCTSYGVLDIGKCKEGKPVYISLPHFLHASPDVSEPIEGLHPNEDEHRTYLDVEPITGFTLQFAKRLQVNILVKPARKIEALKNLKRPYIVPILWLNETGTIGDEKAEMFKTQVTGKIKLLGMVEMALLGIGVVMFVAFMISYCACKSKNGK

[2] = biological target: Platelet glycoprotein 4 (Mus musculus) (UniProt Q08857); test: Modulation of CD36 in mouse […] cells assessed as inhibition of R-FSL1-induced NO over production at 1 uM preincubated for 1 hr followed by overnight R-FSL1 stimulation by DAN-fluorescence assay relative to control; assay type: cell-based
[3] = biological target: Platelet glycoprotein 4 (Rattus norvegicus, UniProt Q07969); test: Inhibition of photoactivatable [125I]-Tyr-Bpa-Ala-hexarelin binding to CD36 in Sprague-Dawley rat heart membranes after 60 mins by SDS-PAGE analysis; assay type: cell membranes, Membrane
Platelet glycoprotein 4, sequence (Q07969 whole entry): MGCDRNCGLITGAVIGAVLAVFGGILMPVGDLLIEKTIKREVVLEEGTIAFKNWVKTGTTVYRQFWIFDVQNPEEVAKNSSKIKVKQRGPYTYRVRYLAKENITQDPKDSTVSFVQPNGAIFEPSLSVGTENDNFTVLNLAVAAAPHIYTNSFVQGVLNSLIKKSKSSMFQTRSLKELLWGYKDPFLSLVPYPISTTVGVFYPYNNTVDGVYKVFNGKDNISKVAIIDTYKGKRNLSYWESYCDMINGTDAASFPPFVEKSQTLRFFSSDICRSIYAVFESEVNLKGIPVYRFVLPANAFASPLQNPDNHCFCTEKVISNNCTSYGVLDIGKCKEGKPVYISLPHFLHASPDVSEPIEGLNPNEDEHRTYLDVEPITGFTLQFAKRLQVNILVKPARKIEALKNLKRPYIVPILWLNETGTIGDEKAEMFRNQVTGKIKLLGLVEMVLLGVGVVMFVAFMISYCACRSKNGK

[4] = biological target: Platelet glycoprotein 4 (Rattus norvegicus) (UniProt Q07969); test: Inhibition of photoactivatable [125I]-Tyr-Bpa-Ala-hexarelin binding to CD36 in Sprague-Dawley rat heart membranes after 60 mins by SDS-PAGE analysis relative to H-His-D-Trp-Ala-aza(3-hydroxy)Phe-D-Phe-Lys-NH2; assay type: cell membranes; conditions: Membrane
Platelet glycoprotein 4 (Rattus norvegicus), sequence (Q07969 whole entry): as above

[5] = species: Mus musculus; test: Anti-angiogenic activity in mouse sclera/choroid/retinal pigment epithelium complex assessed as reduction in microvascular sprouting at 1 uM after 24 hrs by microscopic analysis; assay type: functional
[6] = Pro-angiogenic activity in mouse sclera/choroid/retinal pigment epithelium complex assessed as increase in microvascular sprouting at 1 uM after 24 hrs by microscopic analysis; assay type: ADME

SMILES | inhibition [1] | inhibition [2] | IC50 [3] [µM] | fold change (FC) [4] | Activity [5] | Activity [6]
C[C@H](N)C(=O)N[C@H](Cc1c[nH]c2ccccc12)C(=O)N[C@@H](C)C(=O)NN(Cc1ccc([N+](=O)[O-])cc1)C(=O)N[C@H](Cc1ccccc1)C(=O)N[C@@H](CCCCN)C(N)=O | Active | Active |  |  |  | 
Cc1cccc(C)c1CN(NC(=O)[C@H](C)NC(=O)[C@@H](Cc1c[nH]c2ccccc12)NC(=O)[C@@H](N)Cc1cnc[nH]1)C(=O)N[C@H](Cc1ccccc1)C(=O)N[C@@H](CCCCN)C(N)=O | Active | Active | 5.51 | 5.1 | inactive | 
COc1ccc(CN(NC(=O)[C@H](C)NC(=O)[C@@H](Cc2c[nH]c3ccccc23)NC(=O)[C@H](C)N)C(=O)N[C@H](Cc2ccccc2)C(=O)N[C@@H](CCCCN)C(N)=O)cc1 | Active | Active |  |  |  | 
C[C@H](NC(=O)[C@@H](Cc1c[nH]c2ccccc12)NC(=O)[C@@H](N)Cc1cnc[nH]1)C(=O)NN(Cc1c[nH]nn1)C(=O)N[C@H](Cc1ccccc1)C(=O)N[C@@H](CCCCN)C(N)=O | inactive | inactive |  |  |  | 
COc1cc(Cl)c(CN(NC(=O)[C@H](C)NC(=O)[C@@H](Cc2c[nH]c3ccccc23)NC(=O)[C@@H](N)Cc2cnc[nH]2)C(=O)N[C@H](Cc2ccccc2)C(=O)N[C@@H](CCCCN)C(N)=O)c(Cl)c1 | inactive | inactive |  |  |  | 
Cc1[nH]c2ccccc2c1C[C@@H](NC(=O)[C@@H](N)Cc1c[nH]cn1)C(=O)N[C@@H](C)C(=O)N[C@@H](Cc1c[nH]c2ccccc12)C(=O)N[C@H](Cc1ccccc1)C(=O)N[C@@H](CCCCN)C(N)=O (H-H[dTrp(2-Me)]AW[dF]K-NH2) |  |  |  | 18.1 |  | 
C[C@H](NC(=O)[C@@H](Cc1c[nH]c2ccccc12)NC(=O)[C@@H](N)Cc1cnc[nH]1)C(=O)NN(CCCCCN)C(=O)N[C@H](Cc1ccccc1)C(=O)N[C@@H](CCCCN)C(N)=O | inactive | inactive |  |  |  | 
C[C@H](N)C(=O)N[C@H](Cc1c[nH]c2ccccc12)C(=O)N[C@@H](C)C(=O)NN(Cc1ccc(Br)cc1)C(=O)N[C@H](Cc1ccccc1)C(=O)N[C@@H](CCCCN)C(N)=O |  |  | 12.5 | 2.2 | inactive | 
COc1cc(Cl)cc(Cl)c1CN(NC(=O)[C@H](C)NC(=O)[C@@H](Cc1c[nH]c2ccccc12)NC(=O)[C@@H](N)Cc1cnc[nH]1)C(=O)N[C@H](Cc1ccccc1)C(=O)N[C@@H](CCCCN)C(N)=O | inactive | inactive |  |  |  | 
CCCOc1ccc(CN(NC(=O)[C@H](C)NC(=O)[C@@H](Cc2c[nH]c3ccccc23)NC(=O)[C@@H](N)Cc2cnc[nH]2)C(=O)N[C@H](Cc2ccccc2)C(=O)N[C@@H](CCCCN)C(N)=O)cc1 | Active | Active | 1.65 | 17.1 |  | Toxic
C[C@H](NC(=O)[C@@H](Cc1c[nH]c2ccccc12)NC(=O)[C@@H](N)Cc1cnc[nH]1)C(=O)NN(Cc1c(F)cc(F)cc1F)C(=O)N[C@H](Cc1ccccc1)C(=O)N[C@@H](CCCCN)C(N)=O | inactive | inactive |  |  |  | 
Cc1cc(F)cc(C)c1CN(NC(=O)[C@H](C)NC(=O)[C@@H](Cc1c[nH]c2ccccc12)NC(=O)[C@@H](N)Cc1cnc[nH]1)C(=O)N[C@H](Cc1ccccc1)C(=O)N[C@@H](CCCCN)C(N)=O | Active | Active | 5.58 | 5 | inactive | 
C[C@H](NC(=O)[C@@H](Cc1c[nH]c2ccccc12)NC(=O)[C@@H](N)Cc1cnc[nH]1)C(=O)NN(Cc1cccc(O)c1)C(=O)N[C@H](Cc1ccccc1)C(=O)N[C@@H](CCCCN)C(N)=O | inactive | inactive | 28.2 |  | inactive | 
C[C@H](NC(=O)[C@@H](Cc1c[nH]c2ccccc12)NC(=O)[C@@H](N)Cc1cnc[nH]1)C(=O)NN(Cc1ccccc1)C(=O)N[C@H](Cc1ccccc1)C(=O)N[C@@H](CCCCN)C(N)=O (H-H[dW]A[azaPhe][dF]K-NH2) | inactive | inactive | 10.1 | 2.8 | inactive | 
C[C@H](N)C(=O)N[C@H](Cc1c[nH]c2ccccc12)C(=O)N[C@@H](C)C(=O)NN(Cc1ccc(C(F)(F)F)cc1)C(=O)N[C@H](Cc1ccccc1)C(=O)N[C@@H](CCCCN)C(N)=O | inactive | inactive |  |  |  | 
C[C@H](N)C(=O)N[C@H](Cc1c[nH]c2ccccc12)C(=O)N[C@@H](C)C(=O)NN(Cc1ccccc1)C(=O)N[C@H](Cc1ccccc1)C(=O)N[C@@H](CCCCN)C(N)=O (H-A[dW]A[azaPhe][dF]K-NH2) | Active | Active | 19 | 1.5 | inactive | 
C[C@H](N)C(=O)N[C@H](Cc1c[nH]c2ccccc12)C(=O)N[C@@H](C)C(=O)NN(Cc1ccc(I)cc1)C(=O)N[C@H](Cc1ccccc1)C(=O)N[C@@H](CCCCN)C(N)=O | inactive | inactive |  |  |  | 
C[C@H](N)C(=O)N[C@H](Cc1c[nH]c2ccccc12)C(=O)N[C@@H](C)C(=O)NN(Cc1ccc(Cl)cc1)C(=O)N[C@H](Cc1ccccc1)C(=O)N[C@@H](CCCCN)C(N)=O |  |  | 4.94 | 5.7 | Active | 
C[C@H](N)C(=O)N[C@H](Cc1c[nH]c2ccccc12)C(=O)N[C@@H](C)C(=O)NN(Cc1ccc(O)cc1)C(=O)N[C@H](Cc1ccccc1)C(=O)N[C@@H](CCCCN)C(N)=O (H-A[dW]A[azaTyr][dF]K-NH2) |  |  | 9.19 | 3.1 | inactive | 

Now from value to compound, other results behind:

inhibition [1] | inhibition [2] | IC50 [3] [µM] | fold change (FC) [4] | SMILES | Activity [5] | Activity [6]
Active | Active | 7.51 | 3.7 | COc1ccc(CN(NC(=O)[C@H](C)NC(=O)[C@@H](Cc2c[nH]c3ccccc23)NC(=O)[C@@H](N)Cc2cnc[nH]2)C(=O)N[C@H](Cc2ccccc2)C(=O)N[C@@H](CCCCN)C(N)=O)cc1 | Active | 
Active | Active | 6.06 | 4.6 | C[C@H](NC(=O)[C@@H](Cc1c[nH]c2ccccc12)NC(=O)[C@@H](N)Cc1cnc[nH]1)C(=O)NN(Cc1ccc(F)cc1)C(=O)N[C@H](Cc1ccccc1)C(=O)N[C@@H](CCCCN)C(N)=O | Active | 
inactive | inactive |  |  | C[C@H](NC(=O)[C@@H](Cc1c[nH]c2ccccc12)NC(=O)[C@@H](N)Cc1cnc[nH]1)C(=O)NN(Cc1ccc([N+](=O)[O-])cc1)C(=O)N[C@H](Cc1ccccc1)C(=O)N[C@@H](CCCCN)C(N)=O |  | 
Active | Active | 3.6 | 7.8 | C[C@H](NC(=O)[C@@H](Cc1c[nH]c2ccccc12)NC(=O)[C@@H](N)Cc1cnc[nH]1)C(=O)NN(Cc1ccc(Br)cc1)C(=O)N[C@H](Cc1ccccc1)C(=O)N[C@@H](CCCCN)C(N)=O | Active | 
inactive | inactive |  |  | C[C@H](NC(=O)[C@@H](Cc1c[nH]c2ccccc12)NC(=O)[C@@H](N)Cc1cnc[nH]1)C(=O)NN(Cc1ccc(I)cc1)C(=O)N[C@H](Cc1ccccc1)C(=O)N[C@@H](CCCCN)C(N)=O |  | 
Active | Active | 8.36 | 3.4 | C[C@H](NC(=O)[C@@H](Cc1c[nH]c2ccccc12)NC(=O)[C@@H](N)Cc1cnc[nH]1)C(=O)NN(Cc1ccc(Cl)cc1)C(=O)N[C@H](Cc1ccccc1)C(=O)N[C@@H](CCCCN)C(N)=O |  | Toxic
inactive | inactive |  |  | CC(C)Oc1ccc(CN(NC(=O)[C@H](C)NC(=O)[C@@H](Cc2c[nH]c3ccccc23)NC(=O)[C@@H](N)Cc2cnc[nH]2)C(=O)N[C@H](Cc2ccccc2)C(=O)N[C@@H](CCCCN)C(N)=O)cc1 |  | 
inactive | inactive |  |  | C[C@H](NC(=O)[C@@H](Cc1c[nH]c2ccccc12)NC(=O)[C@@H](N)Cc1cnc[nH]1)C(=O)NN(Cc1ccc(C(F)(F)F)cc1)C(=O)N[C@H](Cc1ccccc1)C(=O)N[C@@H](CCCCN)C(N)=O |  | 
inactive | inactive | 1.9 | 14.8 | C[C@H](NC(=O)[C@@H](Cc1c[nH]c2ccccc12)NC(=O)[C@@H](N)Cc1cnc[nH]1)C(=O)NN(Cc1ccc(O)cc1)C(=O)N[C@H](Cc1ccccc1)C(=O)N[C@@H](CCCCN)C(N)=O (H-H[dW]A[azaTyr][dF]K-NH2) | Active | 
